Structures can show the parent of a compound that is named as a salt.

Chain of bovine milk xanthine oxidase (P80457 whole entry): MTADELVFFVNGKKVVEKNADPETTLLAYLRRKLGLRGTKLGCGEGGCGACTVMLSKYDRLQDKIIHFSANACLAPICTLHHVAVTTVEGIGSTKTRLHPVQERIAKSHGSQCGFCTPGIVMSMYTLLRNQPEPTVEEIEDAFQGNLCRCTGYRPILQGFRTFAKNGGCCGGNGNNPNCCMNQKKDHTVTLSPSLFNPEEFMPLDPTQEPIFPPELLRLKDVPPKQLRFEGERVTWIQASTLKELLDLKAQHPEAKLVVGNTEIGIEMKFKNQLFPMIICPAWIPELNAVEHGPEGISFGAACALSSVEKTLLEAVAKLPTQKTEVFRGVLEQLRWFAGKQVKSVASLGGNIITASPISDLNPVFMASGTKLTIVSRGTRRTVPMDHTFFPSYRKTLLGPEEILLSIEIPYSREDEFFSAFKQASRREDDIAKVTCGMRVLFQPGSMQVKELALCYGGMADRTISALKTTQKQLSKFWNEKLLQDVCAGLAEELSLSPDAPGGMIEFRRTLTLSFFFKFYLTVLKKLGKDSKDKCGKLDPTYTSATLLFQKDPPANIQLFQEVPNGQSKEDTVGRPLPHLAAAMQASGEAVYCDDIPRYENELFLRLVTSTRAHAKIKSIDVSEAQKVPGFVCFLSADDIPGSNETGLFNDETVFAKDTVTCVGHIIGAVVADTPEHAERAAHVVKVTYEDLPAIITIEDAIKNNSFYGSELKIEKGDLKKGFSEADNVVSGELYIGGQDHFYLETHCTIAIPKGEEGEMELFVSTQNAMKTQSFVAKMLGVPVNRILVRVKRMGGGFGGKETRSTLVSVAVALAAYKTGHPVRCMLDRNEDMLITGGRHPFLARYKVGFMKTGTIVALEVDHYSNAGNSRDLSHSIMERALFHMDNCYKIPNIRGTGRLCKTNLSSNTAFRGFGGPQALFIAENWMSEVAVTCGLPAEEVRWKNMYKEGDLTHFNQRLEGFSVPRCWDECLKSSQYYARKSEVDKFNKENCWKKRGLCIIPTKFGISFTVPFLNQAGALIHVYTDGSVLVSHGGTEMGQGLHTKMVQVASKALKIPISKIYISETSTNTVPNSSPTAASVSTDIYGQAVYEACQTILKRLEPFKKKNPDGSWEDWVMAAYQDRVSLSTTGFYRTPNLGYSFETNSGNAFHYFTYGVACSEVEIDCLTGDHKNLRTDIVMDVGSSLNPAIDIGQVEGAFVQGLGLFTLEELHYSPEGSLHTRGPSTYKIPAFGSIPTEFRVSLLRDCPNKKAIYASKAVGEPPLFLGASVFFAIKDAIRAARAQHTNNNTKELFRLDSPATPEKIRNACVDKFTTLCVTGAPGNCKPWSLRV

The target of one experiment is bovine milk xanthine oxidase (Bos taurus, UniProt P80457). In words: Capacity to sustain oxidation of xanthine by xanthine oxidase in the absence of oxygen, spectrophotometric. The class given is biochemical. Details: host or cells: bovine milk. The note with it: 50 μM hydroxyguanidine, 50 μM xanthine, 0.05 units/ml xanthine oxidase, anaerobic, pH 7.5, 20° C., blank subtracted. Here is the method:
Capacities of a series of hydroxyguanidine to sustain the oxidation of xanthine by xanthine oxidase in the absence of oxygen. The capacities of various hydroxyguanidines to sustain the oxidation of xanthine was assayed by using a spectrophotometric method. In this method bovine milk xanthine oxidase was injected to a Helma® sealable cuvette for anaerobic application thereby creating 1 ml of a reaction mixture that contained reagents as follows: 50 μM of a hydroxyguanidine, 50 μM xanthine, 0.05 units/ml bovine milk xanthine oxidase, 50 mM Tris and 1.5 mM EDTA; the pH of the reaction mixture being 7.5, and the temperature 20° C. Anaerobic conditions were assured by pre-gassing all solutions used for 5-10 min, with nitrogen. The rate of formation of uric acid was monitored spectrophotometrically by measuring the increase in absorbance at 295 nm (the absorption maximum for uric acid) at intervals. The relative capacities of the hydroxyguanidines to sustain oxidation of xanthine were estimated from the derivative of the initial linear phase of the curves. To obtain blank readings an equal volume of the solvent of the hydroxyguanidine (water) was added to the reaction mixture in separate experiments and the initial rate of absorbance change was substracted from the rate readings of the tested hydroxyguanidine.
Exemplary initial rates for the rate of the support of the oxidation of xanthine obtained by assaying the exemplary hydroxyguanidines listed above by the method in the present example are furthermore given in Table 2: […]
As to `CC(=C/c1ccccc1)/C=N/NC(=N)NO` [EN20], the “V = 1000 × (Δabs 295 nm) min^−1 (initial rate of the support of the oxidation of xanthine)” value is 44 1000 × (Δabs 295 nm) min^−1.
In the case of `COc1ccc(/C(C)=N/NC(=N)NO)cc1OC` [PR11, 3,4-Dimethoxyacetophenone-N-hydroxyguanyl-hydrazone tosylate], the “V = 1000 × (Δabs 295 nm) min^−1 (initial rate of the support of the oxidation of xanthine)” value was 12 1000 × (Δabs 295 nm) min^−1.
With `Cc1c(/C=N/NC(=N)NO)sc2ccccc12` [PR18, N-(3-Methylbenzo[b]thienyl-2-methyleneamino)-N'-hydroxyguanidine tosylate], the “V = 1000 × (Δabs 295 nm) min^−1 (initial rate of the support of the oxidation of xanthine)” value is listed as 43 1000 × (Δabs 295 nm) min^−1.
For the compound `N=C(NO)NN=CCc1ccccc1` [PR13, N-(Phenylethylideneamino)-N′-hydroxyguanidine tosylate], the “V = 1000 × (Δabs 295 nm) min^−1 (initial rate of the support of the oxidation of xanthine)” value is 3 1000 × (Δabs 295 nm) min^−1.
With `COc1ccc(/C=N/NC(=N)NO)cc1OC` [DWO1, reference compound], the “V = 1000 × (Δabs 295 nm) min^−1 (initial rate of the support of the oxidation of xanthine)” value is 40 1000 × (Δabs 295 nm) min^−1.
As for `N=C(NO)NN=CCOc1c(Cl)cccc1Cl` [PR17, N-(2,6-Dichlorophenoxyethylideneamino)-N′-hydroxyguanidine bromide], the “V = 1000 × (Δabs 295 nm) min^−1 (initial rate of the support of the oxidation of xanthine)” value was −2 1000 × (Δabs 295 nm) min^−1.
For `N=C(NO)N/N=C/C1CCCCC1` [LT10, reference compound], the “V = 1000 × (Δabs 295 nm) min^−1 (initial rate of the support of the oxidation of xanthine)” value was 3 1000 × (Δabs 295 nm) min^−1.
For the compound `N=C(NO)N/N=C/c1cccn1-c1ccc(Cl)cc1` [PR15, N-[1-(4-Chlorophenyl)-pyrrolyl-2-methyleneamino(]-N′-hydroxyguanidine tosylate], the “V = 1000 × (Δabs 295 nm) min^−1 (initial rate of the support of the oxidation of xanthine)” value was 7 1000 × (Δabs 295 nm) min^−1.
In the case of `N=C(N)NO` [Hydroxyguanidine, N-hydroxyguanidine], the “V = 1000 × (Δabs 295 nm) min^−1 (initial rate of the support of the oxidation of xanthine)” value is 0.7 1000 × (Δabs 295 nm) min^−1.
On to `CCCCCCOc1cccc(/C=N/NC(=N)NO)c1` [LT7, reference compound], for which the “V = 1000 × (Δabs 295 nm) min^−1 (initial rate of the support of the oxidation of xanthine)” value is on record as 12 1000 × (Δabs 295 nm) min^−1.
As to “N-(3- Chloro-5-trifuluoromethylpyridyl-2-methyleneamino)-N′-hydroxyguanidine tosylate [PR14]”, the “V = 1000 × (Δabs 295 nm) min^−1 (initial rate of the support of the oxidation of xanthine)” value is listed as 14 1000 × (Δabs 295 nm) min^−1.
Consider `N=C(NO)NN=C1CCCCC1` [PR4, N-(Cyclohexylideneamino)-N′-Hydroxyguanidine Tosylate], for which the “V = 1000 × (Δabs 295 nm) min^−1 (initial rate of the support of the oxidation of xanthine)” value is reported as 7 1000 × (Δabs 295 nm) min^−1.
Turning to `COc1ccc(/C=N/NC(=N)NO)c(OC)c1` [DWO3, reference compound], the “V = 1000 × (Δabs 295 nm) min^−1 (initial rate of the support of the oxidation of xanthine)” value is 29.4 1000 × (Δabs 295 nm) min^−1.
Take `N=C(NO)N/N=C/c1cccc(/C=N/NC(=N)NO)c1` [PR8, 1,3-Bis(N-hydroxyguanidinoiminomethyl)benzene tosylate chloride]: the “V = 1000 × (Δabs 295 nm) min^−1 (initial rate of the support of the oxidation of xanthine)” value is listed as 29 1000 × (Δabs 295 nm) min^−1.
On to `COc1cccc(/C=N/NC(=N)NO)c1` [LT11, reference compound], for which the “V = 1000 × (Δabs 295 nm) min^−1 (initial rate of the support of the oxidation of xanthine)” value is 26 1000 × (Δabs 295 nm) min^−1.
In the case of `COc1ccc(/C=N/NC(=N)NO)cc1F` [DWO7, reference compound], the “V = 1000 × (Δabs 295 nm) min^−1 (initial rate of the support of the oxidation of xanthine)” value was 30.7 1000 × (Δabs 295 nm) min^−1.
Regarding `N=C(NN)NO` [Aminohydroxyguanidine, 1-amino-3-hydroxyguanidine, reference compound], the “V = 1000 × (Δabs 295 nm) min^−1 (initial rate of the support of the oxidation of xanthine)” value is 1.4 1000 × (Δabs 295 nm) min^−1.
For `N=C(NO)N/N=C/c1ccc2c(c1)OCCO2` [LW04, reference compound], the “V = 1000 × (Δabs 295 nm) min^−1 (initial rate of the support of the oxidation of xanthine)” value is 55 1000 × (Δabs 295 nm) min^−1.
Consider `COc1cc(Br)c(/C=N/NC(=N)NO)cc1OC` [DWO6, reference compound], for which the “V = 1000 × (Δabs 295 nm) min^−1 (initial rate of the support of the oxidation of xanthine)” value is listed as 30.7 1000 × (Δabs 295 nm) min^−1.
`N=C(NO)N/N=C1\C(=O)Nc2ccc(F)cc21` [LT5, reference compound]: the “V = 1000 × (Δabs 295 nm) min^−1 (initial rate of the support of the oxidation of xanthine)” value is listed as 50 1000 × (Δabs 295 nm) min^−1.
For the compound `ONc1ncn[nH]1` [PR6, 3-Hydroxyimino-1,2,4-triazole tosylate], the “V = 1000 × (Δabs 295 nm) min^−1 (initial rate of the support of the oxidation of xanthine)” value was 4 1000 × (Δabs 295 nm) min^−1.
Consider `COc1ccc(/C=N/NC(=N)NO)c(Cl)c1O` [DWO5, reference compound], for which the “V = 1000 × (Δabs 295 nm) min^−1 (initial rate of the support of the oxidation of xanthine)” value is 59.7 1000 × (Δabs 295 nm) min^−1.
For `CC(C)CC=NNC(=N)NO` [PR10, N-(3-Methylbutylideneamino)-N′-hydroxyguanidine tosylate], the “V = 1000 × (Δabs 295 nm) min^−1 (initial rate of the support of the oxidation of xanthine)” value is −1 1000 × (Δabs 295 nm) min^−1.
Take `COc1ccc(/C=N/NC(=N)NO)cc1O` [DWO4, reference compound]: the “V = 1000 × (Δabs 295 nm) min^−1 (initial rate of the support of the oxidation of xanthine)” value was 36.7 1000 × (Δabs 295 nm) min^−1.
In the case of `N=C(NO)N/N=C/c1ccc(/C=N/NC(=N)NO)cc1` [PR1, 1,4-Bis(N-Hydroxyguanidinoiminomethyl)Benzene Bromide], the “V = 1000 × (Δabs 295 nm) min^−1 (initial rate of the support of the oxidation of xanthine)” value was 63 1000 × (Δabs 295 nm) min^−1.
On to `N=C(NO)N/N=C/c1c2ccccc2c(Cl)c2ccccc12` [LW01, reference compound], for which the “V = 1000 × (Δabs 295 nm) min^−1 (initial rate of the support of the oxidation of xanthine)” value is 0 1000 × (Δabs 295 nm) min^−1.
For `N=C(NO)N/N=C/c1nccs1` [PR16, N-(Thiazolyl-2-methyleneamino)-N′-hydroxyguanidine tosylate], the “V = 1000 × (Δabs 295 nm) min^−1 (initial rate of the support of the oxidation of xanthine)” value is 13 1000 × (Δabs 295 nm) min^−1.
As for `N=C(NO)N/N=C\C=C/c1ccccc1` [EN16, N-(3-Phenylpropenyleneamino)-N′-hydroxyguanidine tosylate], the “V = 1000 × (Δabs 295 nm) min^−1 (initial rate of the support of the oxidation of xanthine)” value was 66 1000 × (Δabs 295 nm) min^−1.
`N=C(NO)NN=Cc1ccco1` [PR12, N-(Furyl-2-methyleneamino)-N′-hydroxyguanidine tosylate]: the “V = 1000 × (Δabs 295 nm) min^−1 (initial rate of the support of the oxidation of xanthine)” value is listed as 11 1000 × (Δabs 295 nm) min^−1.
On the same count and under the same terms, for `COc1ccc(C=NNC(=N)NO)cc1Br` [EN10, N-(3-Bromo-4-methoxybenzylideneamino)-N′-hydroxyguanidine tosylate] the value was 22 1000 × (Δabs 295 nm) min^−1.
Consider `N=C(NO)NN=C(c1ccccc1)c1ccccc1` [PR2, N-(Diphenylmethyleneamino)-N′-Hydroxyguanidine Bromide], for which the “V = 1000 × (Δabs 295 nm) min^−1 (initial rate of the support of the oxidation of xanthine)” value is on record as 1 1000 × (Δabs 295 nm) min^−1.
Regarding `Cc1cc2oc(/C=N/NC(=N)NO)cc(=O)c2cc1Cl` [EN18, N-(6-Chloro-7-methyl-4oxo-4H-1-benzopyran-3-methyleneamino)-N′-hydroxyguanidine tosylate], the “V = 1000 × (Δabs 295 nm) min^−1 (initial rate of the support of the oxidation of xanthine)” value is on record as 5 1000 × (Δabs 295 nm) min^−1.
On the same count and under the same terms, for `COc1ccc(/C=N/NC(=N)NO)c(OC)c1C` [DWO2, reference compound] the value was 30.7 1000 × (Δabs 295 nm) min^−1.
In the case of `COc1cc(/C=N/NC(=N)NO)c([N+](=O)[O-])cc1OC` [DWO8, reference compound], the “V = 1000 × (Δabs 295 nm) min^−1 (initial rate of the support of the oxidation of xanthine)” value is 45.4 1000 × (Δabs 295 nm) min^−1.
Regarding `Cc1nn(C)c(Cl)c1/C=N/NC(=N)NO` [PR20, N-(5-Chloro-1,3-dimethylpyrazolyl-4-methyleneamino)-N′-hydroxyguanidine tosylate], the “V = 1000 × (Δabs 295 nm) min^−1 (initial rate of the support of the oxidation of xanthine)” value was 13 1000 × (Δabs 295 nm) min^−1.
As for `N=C(NO)NN=Cc1ccc(C(F)(F)F)cc1` [EN12, N-(4-Trifluoromethylbenzylideneamino)-N′-hydroxyguanidine tosylate], the “V = 1000 × (Δabs 295 nm) min^−1 (initial rate of the support of the oxidation of xanthine)” value was 11 1000 × (Δabs 295 nm) min^−1.
As for `N=C(NO)N/N=C/c1cc[n+](O)cc1` [PR19, N-(N-Oxypyridyl-4-methyleneamino)-N′-hydroxyguanidine tosylate], the “V = 1000 × (Δabs 295 nm) min^−1 (initial rate of the support of the oxidation of xanthine)” value is given as 5 1000 × (Δabs 295 nm) min^−1.

Staying with this experiment, now noted: as disclosed in Example 7.
Consider `COc1ccc(/C=N/NC(=N)NO)c(OC)c1` [DWO3, reference compound], for which the “activity / capacity to undergo reduction (reaction A), in words” value is on record as “moderate capacity”.

The values are drawn from patent US6599943B1, “Use of hydroxyguanidines” (WaPharm AB, priority 1996, dated 2003).
